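Where inhibition never reached the appropriate level, the endpoint shown equals the highest concentration tested. Otherwise, values were interpolated linearly from a five-concentration, 48-hour dose response in 96-well plates. GI50 is the concentration that inhibits growth by half. TGI: total growth inhibition.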
Key:
Assay in all cases: growth of human tumour cells (NCI), 48 h
NCI-H226 lung = tested on: NCI-H226 lung
NCI-H23 lung = tested on: NCI-H23 lung
NCI-H460 lung = tested on: NCI-H460 lung
NCI-H522 lung = tested on: NCI-H522 lung
NCI/ADR-RES ovarian = tested on: NCI/ADR-RES ovarian
OVCAR-3 ovarian = tested on: OVCAR-3 ovarian
OVCAR-4 ovarian = tested on: OVCAR-4 ovarian
OVCAR-5 ovarian = tested on: OVCAR-5 ovarian
OVCAR-8 ovarian = tested on: OVCAR-8 ovarian
PC-3 prostate = tested on: PC-3 prostate
RPMI-8226 leukemia = tested on: RPMI-8226 leukemia
RXF 393 renal = tested on: RXF 393 renal
SF-268 CNS = tested on: SF-268 CNS
SF-295 CNS = tested on: SF-295 CNS
SF-539 CNS = tested on: SF-539 CNS
SK-MEL-2 melanoma = tested on: SK-MEL-2 melanoma
SK-MEL-28 melanoma = tested on: SK-MEL-28 melanoma
SK-MEL-5 melanoma = tested on: SK-MEL-5 melanoma
SK-OV-3 ovarian = tested on: SK-OV-3 ovarian
SN12C renal = tested on: SN12C renal
SNB-19 CNS = tested on: SNB-19 CNS
SNB-75 CNS = tested on: SNB-75 CNS
SR leukemia = tested on: SR leukemia
SW-620 colon = tested on: SW-620 colon
T-47D breast = tested on: T-47D breast
TK-10 renal = tested on: TK-10 renal
U251 CNS = tested on: U251 CNS
UACC-257 melanoma = tested on: UACC-257 melanoma
UACC-62 melanoma = tested on: UACC-62 melanoma
UO-31 renal = tested on: UO-31 renal

SMILES: N#Cc1c(NC(=O)c2ccc(C(F)(F)F)cc2C(F)(F)F)sc2c1CCC(=O)C2
- TGI (NCI-H226 lung): 6.81 µM
- GI50 (NCI-H23 lung): 0.431 µM
- TGI (NCI-H23 lung): 2.28 µM
- GI50 (NCI-H460 lung): 3.13 µM
- TGI (NCI-H460 lung): 10.9 µM
- GI50 (NCI-H522 lung): 0.169 µM
- TGI (NCI-H522 lung): 0.686 µM
- GI50 (NCI/ADR-RES ovarian): 0.623 µM
- TGI (NCI/ADR-RES ovarian): 7.14 µM
- GI50 (OVCAR-3 ovarian): 0.36 µM
- TGI (OVCAR-3 ovarian): 1.37 µM
- GI50 (OVCAR-4 ovarian): 0.507 µM
- TGI (OVCAR-4 ovarian): 1.88 µM
- GI50 (OVCAR-5 ovarian): 1.04 µM
- TGI (OVCAR-5 ovarian): 2.67 µM
- GI50 (OVCAR-8 ovarian): 0.569 µM
- TGI (OVCAR-8 ovarian): 16.5 µM
- GI50 (PC-3 prostate): 0.249 µM
- TGI (PC-3 prostate): 2.36 µM
- GI50 (RPMI-8226 leukemia): 0.209 µM
- TGI (RPMI-8226 leukemia): 4.11 µM
- GI50 (RXF 393 renal): 0.293 µM
- TGI (RXF 393 renal): 1.27 µM
- GI50 (SF-268 CNS): 2.82 µM
- TGI (SF-268 CNS): 13.2 µM
- GI50 (SF-295 CNS): 1.99 µM
- TGI (SF-295 CNS): 6.4 µM
- GI50 (SF-539 CNS): 0.316 µM
- TGI (SF-539 CNS): 1.15 µM
- GI50 (SK-MEL-2 melanoma): 2.23 µM
- TGI (SK-MEL-2 melanoma): 4.55 µM
- GI50 (SK-MEL-28 melanoma): 0.613 µM
- TGI (SK-MEL-28 melanoma): 1.9 µM
- GI50 (SK-MEL-5 melanoma): 0.804 µM
- TGI (SK-MEL-5 melanoma): 2.08 µM
- GI50 (SK-OV-3 ovarian): 2.66 µM
- TGI (SK-OV-3 ovarian): 7.23 µM
- GI50 (SN12C renal): 0.675 µM
- TGI (SN12C renal): 11.1 µM
- GI50 (SNB-19 CNS): 3.69 µM
- TGI (SNB-19 CNS): 14.1 µM
- GI50 (SNB-75 CNS): 1.46 µM
- TGI (SNB-75 CNS): 4.9 µM
- GI50 (SR leukemia): 0.303 µM
- TGI (SR leukemia): > 100 µM
- GI50 (SW-620 colon): 0.363 µM
- TGI (SW-620 colon): 1.61 µM
- GI50 (T-47D breast): 0.358 µM
- TGI (T-47D breast): 2.96 µM
- GI50 (TK-10 renal): 0.367 µM
- TGI (TK-10 renal): 2.19 µM
- GI50 (U251 CNS): 0.8 µM
- TGI (U251 CNS): 13.2 µM
- GI50 (UACC-257 melanoma): 1.5 µM
- TGI (UACC-257 melanoma): 3.63 µM
- GI50 (UACC-62 melanoma): 0.501 µM
- TGI (UACC-62 melanoma): 1.87 µM
- GI50 (UO-31 renal): 0.339 µM
- TGI (UO-31 renal): 1.31 µM
